Measured values: paper PMC12730730, “CAPE Derivatives as Potent Agents for Induction of Osteogenic Differentiation in DPSCs and Biomaterial Development” (Biomedicines, 2025)
“Also recorded” adds a separate entry of the source.

Experiments:
Collagen type I = assay: ELISA of collagen type I release in DPSC supernatants; format: cell-based, human; settings: 0.5 µM; 7, 14 and 21 days; normalized on crystal violet values
Experimental: (§1) DPSCs were seeded at a density of 3.5 × 10^4 in 12-well plates in the presence of differentiation medium, which consists of complete α-MEM supplemented with 10 nM dexamethasone, 10 mM β-glycerophosphate and 0.2 mM ascorbic acid phosphate (all purchased from Sigma-Aldrich, St. Louis, MO, USA). At the established experimental times (3, 7, 14, 21 and 28 days), cells and/or supernatants were collected for further analyses.
The release of collagen type I in cell supernatants was measured by a Human Collagen Type 1 ELISA kit (Cosmo Bio Co., Ltd., Tokyo, Japan; cat. no. ACE-EC1-E105-EX). The absorbance was measured at 450 nm spectrophotometrically (Multiskan GO, Thermo Fisher Scientific). The concentration of collagen type I (µg/mL) was calculated using a standard curve generated with specific standards provided by the manufacturers and normalized with the crystal violet values.

Osterix (SP7) = assay: Real-time RT-PCR, Osterix (SP7) gene expression in DPSCs; format: cell-based; settings: 0.5 µM, vs control sample
Experimental: (§2) After 7, 14, and 21 days of treatment, DPSCs were collected and RNA was extracted by PureLink® RNA Mini Kit (Life Technologies, Carlsbad, CA, USA). An amount of 300 µL of lysis buffer supplied with 1% of 2-mercaptoethanol and then 300 µL of 70% v/v ethanol were added to each cell pellet, and samples were transferred into the Spin Cartridge for RNA extraction and purification. After washing with Wash Buffer supplied by the kit, samples were incubated for 15 min with 80 µL of DNase mixture (On-column PureLink® DNase Treatment, Thermo Fisher Scientific) to remove contaminating DNA. RNA extracted from each sample was eluted in 30 µL of Nuclease-Free Water. RNA concentration (ng/µL) was determined through Qubit® RNA BR Assay Kits (Thermo Fisher Scientifc).
(§3) A total of 1 µg of RNA was reverse-transcribed by high-capacity cDNA Reverse Transcription Kit (Life Technologies). Samples were incubated in a thermal cycler at 25 °C for 10 min, 37 °C for 2 h, and 85 °C for 5 min.
(§4) For all the examined mRNAs, gene expression was determined by quantitative PCR using PowerUpTM SYBRTM Green Master Mix (2×) (Thermo Fisher Scientific). Each amplification reaction was performed in a MicroAmp® Optical 96-well Reaction Plate (Life Technologies, Carlsbad, CA, USA) in a reaction volume of 20 µL made up of 10 µL of SYBR Green, 1 µM of each primer (stock solution 100 µM), 10 ng of cDNA and Nuclease-Free Water.
(§5) The run consisted of 50 °C for 2 min, 95 °C for 2 min, 40 cycles of amplification at 95 °C for 15 s and 60 °C for 1 min in QuantStudio 3 (Thermo Fisher Scientific). QuantStudio™ Design & Analysis Software v1.5.1 (Thermo Fisher Scientific) was used to elaborate gene expression data. The authenticity of the PCR products was verified by melt curve analysis. Each gene expression value was normalized to the expression level of 18S. The fold changes of the investigated genes were expressed in relation to the level of 18S at different time points. The relative abundance of mRNA (relative quantification) was quantified using the comparative ^2−∆∆Ct method.

[1] = Kinetic of chemical hydrolysis in 0.02 M phosphate buffer, HPLC; format: physicochemical; settings: for half-life: phosphate buffer
Experimental: For compounds 1a and 1d, the chromatographic analyses were performed using a 1260 Infinity II HPLC (Agilent, Santa Clara, CA, USA) consisting of a 1260 Infinity II Quaternary Pump (model G7111A), 1260 Infinity II auto-sampler (model G7129A), a 1260 Infinity II Multicolumn Thermostat (model G7116A), and a 1260 Infinity II Diode Array Detector (model G7115A) equipped with Poroshell 120 EC-C18 (150 × 4.6 mm i.d., particle size 4 µm, Agilent), operating at 20 °C.
Samples were run using a mixture of water and acetonitrile, enriched with trifluoroacetic acid (0.1% v/v) as mobile phase, in a gradient elution mode starting from 90% to 10% of water over 15 min (Table 2) at a flow rate of 0.8 mL/min. Stock solutions (10 mg/mL) were prepared by dissolving the exact amount of each compound in DMSO and acetonitrile (1:1), and then diluted with acetonitrile to reach 250 µg/mL concentration and analyzed by HPLC, setting the UV-detector at 254 nm.
CAPE, 1a and 1d stock solutions (10 mg/mL) were diluted in prewarmed (37 ± 0.5 °C) PBS solution to reach 10^−4 M concentration (50 mL); these conditions were used to initiate the reaction. At established time points, samples of 250 µL were withdrawn, filtered, and analyzed by HPLC. The pseudo-first-order rate constant (kobs) for the compound hydrolysis was calculated from the slops of the linear plots of ln (% residual compound) against time. The samples were analyzed in triplicate.

[2] = system: Alkaline phosphatase (ALP) activity in DPSCs; assay: Alkaline phosphatase (ALP) activity in supernatants of differentiating DPSCs; format: cell-based; settings: 0.5 µM; 3, 7, 14, 21 and 28 days; vs control (diff)
Experimental: as §1
A colorimetric Alkaline Phosphate Assay Kit (Abcam, Cambridge, UK) was used following manufacturer’s instructions. Briefly, 50 µL of 5 mM p-nitrophenyl phosphate (pNPP) was added to 80 µL of each supernatant and then incubated for 1 h at room temperature in the dark. After the addition of 20 µL of stopping solution, the absorbance was read at 405 nm wavelength through a microplate reader (Multiskan GO, Thermo Fisher Scientific). The ALP activity (mU/mL/min) was calculated in accordance with the manufacturer’s protocol.

[3] = Thermal stability of the solid compounds, 1H-NMR before and after heating; format: physicochemical; settings: 20 min at 100 °C, water bath, solid compound
Experimental: To ensure the suitability of compounds 1a and 1d for adsorption onto biomaterials, their thermal stability was confirmed. Initially, ^1H-NMR spectra were acquired for the compounds. Subsequently, they were subjected to heating for 20 min at 100 °C by immersing glass tubes containing the solid compounds in a water bath. Following the heating process, their ^1H-NMR spectra were reacquired and compared with the initial spectra to assess any alterations.

[4] = design: method as in PMID 39054610; settings: 30 min at 50 °C; cited from earlier work
DPSCs [5] = assay: Crystal violet cell viability assay of DPSCs in osteogenic medium; format: cell-based; settings: 0.5, 1 and 5 µM; 3, 7, 14, 21 and 28 days; vs Control (diff)
Experimental: Dental pulp stem cells (DPSCs) were cultured in α-MEM medium (Merck, Darmstadt, Germany), supplemented with 10% fetal bovine serum (FBS) and 1% penicillin/streptomycin (Euroclone S.p.A., Milan, Italy). The cells were purchased from Lonza (Lonza Group Ltd., Basel, Switzerland) and kept at 37 °C and 5% CO2.
Cell viability (relative numbers compared to control cells) was determined by a crystal violet assay. After reaching the growth exponential phase, DPSCs were seeded into 48-well culture plates at a density of 8 × 10^3 cells per well. After 24 h, different concentrations (ranging from 0 to 5 µM) of each compound (1a, 1d, 2a and 2d) were added to DPSCs in an osteogenic medium, whereas cells cultured in the same osteogenic medium without CAPE derivatives served as control. After 3, 7, 14, 21, and 28 days, the medium was removed from each well, a wash with PBS was performed and cell were then fixed with glutaraldehyde (1%), and stained at room temperature with a crystal violet solution (0.02%) (both from Thermo Fisher Scientific, Waltham, MA, USA). After 30 min, the cells were rinsed with tap water, and bound crystal violet was dissolved in 70% ethanol. Then, absorbance was read at 600 nm with a spectrophotometer (Multiskan GO, Thermo Fisher Scientific, Waltham, MA, USA). The optical density readings were used to indicate cell survival relative to untreated cultures.

DPSCs [6] = assay: Alizarin Red S staining, extracellular mineralized matrix deposition; format: cell-based; settings: for Extracellular mineralized matrix deposition compared to non-treated cells (Alizarin Red): 28 days in differentiation medium, 0.5, 1 and 5 µM; for Concentrations at which matrix deposition / mineralization is enhanced: 28 days, tested 0.5, 1 and 5 µM
Experimental: as §1
Alizarin red staining was performed after 28 days, by washing twice with PBS with Ca^2+/Mg^2+ each well, and fixing the cell monolayer of DPSCs in paraformaldehyde 4% for 15 min at room temperature. After washing twice with deionized water, 40 mM Alizarin Red S solution (Sigma-Aldrich) was added to each well and left at room temperature for 20 min on a shaker, followed by several rinses with deionized water in order to eliminate dye excess. For the spectrophotometric evaluation of calcium level deposits, 800 µL/well of 10% acetic acid was added to each well and then incubated for 30 min in agitation. Wells were then scraped and the sample containing calcium deposits was collected and vortexed. After the addition of hot mineral oil (Sigma-Aldrich), the samples were incubated on ice for 5 min and then centrifuged at 20,000× g for 15 min. After the removal of the supernatant, 10% ammonium hydroxide was added, and the optical density of 150 µL aliquots of this solution was measured at 405 nm through a microplate reader (Multiskan GO, Thermo Fisher Scientific).

BMP2 = assay: Real-time RT-PCR, BMP2 gene expression in DPSCs; format: cell-based; settings: 0.5 µM, vs Control (diff)
Experimental: as §2, §3, §4, §5

[7] = system: SAOS-2 osteoblastic cell lines; settings: cited from earlier work
calvarial-derived cells = system: calvarial-derived cells; design: method as in Jun et al. 54; settings: long-term cultures of calvarial-derived cells; ref Jun et al. 54; cited from earlier work
osteoblastic cells = system: osteoblastic cells; design: method as in PMID 17979115; settings: cited from earlier work

Kobs ([1]; pH 4.5, 37 °C)	half-life ([1]; pH 4.5, pH 4.5, 37 °C)	Thermal stability (identical 1H NMR spectra before and after heat) [3]	t1/2 ([1]; pH 4.5, 37 °C)	Kobs ([1]; pH 7.4)	half-life ([1]; pH 7.4, pH 7.4)	Compound	Collagen type I release with respect to the control sample (Collagen type I)	Osx (SP7) relative gene expression (Osterix (SP7); 21 days)	ALP activity compared to non-treated cells [2]	Thermal stability (consistent 1H NMR spectra before and after heat) [4]	Cell viability / toxicity towards DPSCs (DPSCs [5])	Extracellular mineralized matrix deposition compared to non-treated cells (Alizarin Red) (DPSCs [6])	Concentrations at which matrix deposition / mineralization is enhanced (DPSCs [6])	BMP2 relative gene expression (BMP2; 21 days)	further results
0.009 (±0.0008) h^−1	80.6 h	stable				O=C(/C=C/c1ccccc1)Oc1cccc2cccnc12 [compound 1a]	higher quantity of Collagen type I	2.26 fold	significantly higher than non-treated cells at all time points	stable	no toxicity	more effective in enhancing matrix deposition	across all tested concentrations	2.2 fold	Osx (SP7) relative gene expression (Osterix (SP7); 14 days): 4.8 fold; t1/2 ([1]; pH 7.4): no degradation; also recorded: stable; BMP2 relative gene expression (BMP2; 14 days): 1.2 fold
						O=C(/C=C/c1ccc(O)c(O)c1)Nc1cccc2cccnc12 [compound 2d]			significantly higher than non-treated cells at all time points		no toxicity	more effective in enhancing matrix deposition	only enhance mineralization at the lowest concentration	higher BMP2 expression only after 21 days	
						O=C(/C=C/c1ccccc1)Nc1cccc2cccnc12 [compound 2a]					no toxicity	no significant changes			
		stable	no degradation; also recorded: stable	0.033 (±0.002) h^−1	21.2 h	O=C(/C=C/c1ccc(O)c(O)c1)Oc1cccc2cccnc12 [compound 1d]	higher quantity of Collagen type I	2.19 fold	significantly higher than non-treated cells at all time points	stable	no toxicity	more effective in enhancing matrix deposition	only enhance mineralization at the lowest concentration		BMP2 relative gene expression (BMP2; 7 days): significantly increased BMP2 expression
0.006 (±0.0009) h^−1	117 h		117.5 (±2.10) h	0.018 (±0.004) h^−1	38.5 h	O=C(/C=C/c1ccc(O)c(O)c1)OCCc1ccccc1 [CAPE, caffeic acid phenethyl ester]									Cytotoxicity at similar concentrations (0.5-5 µM range) ([7]; SAOS-2 osteoblastic cell lines): does not exhibit cytotoxicity; Concentrations that reduce cell viability [7]: above 10 µM; Concentrations at which toxicity is reported (calvarial-derived cells): above 17.6 µM; ECM mineralization (osteoblastic cells; CAPE at 10 μM): reduction in ECM mineralization; ECM mineralization compared to the control group (osteoblastic cells; CAPE at concentrations up to 100 nM): greater mineralization
